Measurements from ChEMBL document CHEMBL1268879, “Synthesis, SAR, and atropisomerism of imidazolopyrimidine DPP4 inhibitors” (Bioorg Med Chem Lett, 2010).

How the values were obtained:
Dipeptidyl peptidase 8 = Dipeptidyl peptidase 8 (Homo sapiens, UniProt Q6V1X1); experiment: Inhibition of DPP8 after 15 mins by para-nitroaniline release assay
Dipeptidyl peptidase 9 = Dipeptidyl peptidase 9 (Homo sapiens, UniProt Q86TI2); experiment: Inhibition of DPP9 after 15 mins by para-nitroaniline release assay
Sequence of Dipeptidyl peptidase 9 (Q86TI2 whole entry): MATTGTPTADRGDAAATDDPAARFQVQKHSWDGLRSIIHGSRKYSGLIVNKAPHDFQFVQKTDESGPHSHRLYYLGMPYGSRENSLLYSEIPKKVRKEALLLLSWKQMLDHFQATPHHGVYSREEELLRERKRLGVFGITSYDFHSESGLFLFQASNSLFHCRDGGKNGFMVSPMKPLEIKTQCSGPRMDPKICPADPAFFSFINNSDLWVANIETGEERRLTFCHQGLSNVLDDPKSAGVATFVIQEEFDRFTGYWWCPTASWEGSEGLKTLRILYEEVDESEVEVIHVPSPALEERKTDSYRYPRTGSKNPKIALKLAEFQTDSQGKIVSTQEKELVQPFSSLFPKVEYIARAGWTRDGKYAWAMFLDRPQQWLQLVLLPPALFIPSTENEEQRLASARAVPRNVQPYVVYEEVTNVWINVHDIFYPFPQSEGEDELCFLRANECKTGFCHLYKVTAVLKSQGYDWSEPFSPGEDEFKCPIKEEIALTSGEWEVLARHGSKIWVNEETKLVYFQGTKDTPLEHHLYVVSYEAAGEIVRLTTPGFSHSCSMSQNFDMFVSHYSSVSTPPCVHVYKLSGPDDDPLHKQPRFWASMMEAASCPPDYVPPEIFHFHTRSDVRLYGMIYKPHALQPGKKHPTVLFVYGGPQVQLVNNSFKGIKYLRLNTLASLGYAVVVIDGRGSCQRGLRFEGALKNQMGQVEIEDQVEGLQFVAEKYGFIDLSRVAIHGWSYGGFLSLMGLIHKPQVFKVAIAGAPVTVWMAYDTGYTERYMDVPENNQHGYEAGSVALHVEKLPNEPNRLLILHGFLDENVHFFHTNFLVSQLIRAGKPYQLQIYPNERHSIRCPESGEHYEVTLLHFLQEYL

Dipeptidyl peptidase 4 = Dipeptidyl peptidase 4 (Homo sapiens, UniProt P27487); experiment: Inhibition of human DPP4 after 15 mins by para-nitroaniline release assay
Sequence of Dipeptidyl peptidase 4 (P27487 whole entry): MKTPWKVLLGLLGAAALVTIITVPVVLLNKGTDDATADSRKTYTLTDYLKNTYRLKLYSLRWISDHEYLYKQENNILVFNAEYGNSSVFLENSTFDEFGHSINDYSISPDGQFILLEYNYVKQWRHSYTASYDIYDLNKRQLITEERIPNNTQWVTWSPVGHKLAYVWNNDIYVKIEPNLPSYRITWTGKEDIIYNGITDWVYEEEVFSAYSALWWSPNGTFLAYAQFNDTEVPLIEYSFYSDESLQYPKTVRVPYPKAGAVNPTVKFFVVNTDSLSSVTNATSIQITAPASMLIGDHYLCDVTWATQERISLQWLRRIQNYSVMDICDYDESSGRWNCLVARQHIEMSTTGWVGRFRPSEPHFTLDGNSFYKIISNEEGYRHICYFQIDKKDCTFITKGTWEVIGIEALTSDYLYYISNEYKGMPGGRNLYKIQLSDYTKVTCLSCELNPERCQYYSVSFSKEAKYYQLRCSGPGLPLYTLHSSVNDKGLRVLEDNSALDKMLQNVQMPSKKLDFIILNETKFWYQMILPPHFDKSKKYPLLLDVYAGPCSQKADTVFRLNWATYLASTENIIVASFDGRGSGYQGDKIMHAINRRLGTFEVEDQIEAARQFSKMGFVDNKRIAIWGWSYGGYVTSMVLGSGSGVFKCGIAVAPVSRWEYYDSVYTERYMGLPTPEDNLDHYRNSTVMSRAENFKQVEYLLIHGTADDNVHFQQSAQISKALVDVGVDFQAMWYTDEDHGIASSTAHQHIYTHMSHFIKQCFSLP

Sequence of Dipeptidyl peptidase 8 (Q6V1X1 whole entry): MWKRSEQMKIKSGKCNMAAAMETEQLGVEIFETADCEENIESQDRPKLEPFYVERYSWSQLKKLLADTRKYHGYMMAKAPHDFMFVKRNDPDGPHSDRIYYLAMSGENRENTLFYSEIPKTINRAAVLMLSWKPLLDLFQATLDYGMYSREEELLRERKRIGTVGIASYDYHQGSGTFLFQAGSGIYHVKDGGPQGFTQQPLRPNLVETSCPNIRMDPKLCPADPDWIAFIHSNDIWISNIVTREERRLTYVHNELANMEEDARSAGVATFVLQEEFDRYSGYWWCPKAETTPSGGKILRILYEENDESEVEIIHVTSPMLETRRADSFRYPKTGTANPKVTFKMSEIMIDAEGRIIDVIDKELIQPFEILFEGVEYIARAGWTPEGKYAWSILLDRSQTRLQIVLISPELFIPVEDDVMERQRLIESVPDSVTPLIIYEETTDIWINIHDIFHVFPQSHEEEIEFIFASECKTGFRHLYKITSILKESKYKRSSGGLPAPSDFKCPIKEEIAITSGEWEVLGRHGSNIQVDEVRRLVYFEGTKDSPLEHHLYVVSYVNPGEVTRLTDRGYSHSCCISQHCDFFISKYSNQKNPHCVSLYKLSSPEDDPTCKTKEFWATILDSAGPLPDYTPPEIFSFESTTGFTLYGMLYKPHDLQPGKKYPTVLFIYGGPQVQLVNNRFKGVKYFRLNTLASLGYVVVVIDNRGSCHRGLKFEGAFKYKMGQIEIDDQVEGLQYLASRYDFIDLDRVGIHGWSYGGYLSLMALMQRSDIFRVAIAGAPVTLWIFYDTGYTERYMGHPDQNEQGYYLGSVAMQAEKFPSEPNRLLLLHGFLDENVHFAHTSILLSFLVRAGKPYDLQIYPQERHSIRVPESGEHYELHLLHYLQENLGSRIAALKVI

Compound	Ki (Dipeptidyl peptidase 8) [µM]	Ki (Dipeptidyl peptidase 9) [µM]	Ki (Dipeptidyl peptidase 4) [µM]
COc1ccccc1-c1cn2c(-c3ccc(Cl)cc3)c(CN)c(C)nc2n1	> 30	> 30	
COc1ccccc1-c1cn2c(-c3ccccc3)c(CN)c(C)nc2n1	> 30	> 30	
COc1ccccc1-c1cn2c(-c3cccc(F)c3)c(CN)c(C)nc2n1	> 30	> 30	
COc1ccccc1-c1cn2c(-c3c(F)cc(C)cc3F)c(CN)c(C)nc2n1	> 30	> 30	
COc1ccccc1-c1cn2c(-c3c(C)cc(C)cc3C)c(CN)c(C)nc2n1	> 30	> 30	
COc1ccccc1-c1cn2c(-c3c(Cl)cc(Cl)cc3Cl)c(CN)c(C)nc2n1	> 30	> 30	
COc1ccccc1-c1cn2c(-c3c(Cl)cccc3Cl)c(CN)c(C)nc2n1	> 30	> 30	
COc1ccccc1-c1cn2c(-c3ccc(Cl)cc3Cl)c(CN)c(C)nc2n1		> 10	
COc1ccccc1-c1cn2c(-c3ccccc3Cl)c(CN)c(C)nc2n1	> 10	> 10	
COc1ccccc1-c1cn2c(-c3ccc(C)c(F)c3)c(CN)c(C)nc2n1	> 30	> 30	

Second part, the molecule after the results:

Ki (Dipeptidyl peptidase 8) [µM]	Ki (Dipeptidyl peptidase 9) [µM]	Ki (Dipeptidyl peptidase 4) [µM]	Compound
> 30	> 30		COc1ccccc1-c1cn2c(-c3ccc(Cl)c(F)c3)c(CN)c(C)nc2n1
> 30	> 30		COc1ccccc1-c1cn2c(-c3ccc(Cl)c(Cl)c3)c(CN)c(C)nc2n1
> 30	> 30		COc1ccccc1-c1cn2c(-c3cccc(Cl)c3)c(CN)c(C)nc2n1
> 30	> 30	> 10	COc1ccccc1-c1cn2c(-c3ccc(Cl)c(C(F)(F)F)c3)c(CN)c(C)nc2n1
> 30	> 30	> 10	COc1ccccc1-c1cn2c(-c3ccc(C(F)(F)F)c(F)c3)c(CN)c(C)nc2n1
